These results are taken from ChEMBL document CHEMBL1201862, “PubChem BioAssay data set” (2004).

Test [1] concerns HEK293. Put plainly: NOD1 signaling inhibitors, primary screen, cell-based, luminescence, uHTS (AID 1578). The format is functional. The following applies: Homo sapiens.
For test [2], the system named is HEK293. Put plainly: cells. It counts as functional, cell-based. The settings on record: Homo sapiens.
Test [3] concerns HEK293. Put plainly: cells. The format is functional, cell-based. The following applies: Homo sapiens. The source holds these as a separate data set.
Test [4] relates to HEK293. The experiment in a line: NOD2 signaling inhibitors in MDP-stimulated cells, cell-based, uHTS, luminescence (AID 2001). The format is functional. The following applies: Homo sapiens.
The target in test [5] is T1, Adenosylmethionine-8-amino-7-oxononanoate aminotransferase (Mycobacterium tuberculosis, UniProt P9WQ81).
T1 sequence (P9WQ81 whole entry): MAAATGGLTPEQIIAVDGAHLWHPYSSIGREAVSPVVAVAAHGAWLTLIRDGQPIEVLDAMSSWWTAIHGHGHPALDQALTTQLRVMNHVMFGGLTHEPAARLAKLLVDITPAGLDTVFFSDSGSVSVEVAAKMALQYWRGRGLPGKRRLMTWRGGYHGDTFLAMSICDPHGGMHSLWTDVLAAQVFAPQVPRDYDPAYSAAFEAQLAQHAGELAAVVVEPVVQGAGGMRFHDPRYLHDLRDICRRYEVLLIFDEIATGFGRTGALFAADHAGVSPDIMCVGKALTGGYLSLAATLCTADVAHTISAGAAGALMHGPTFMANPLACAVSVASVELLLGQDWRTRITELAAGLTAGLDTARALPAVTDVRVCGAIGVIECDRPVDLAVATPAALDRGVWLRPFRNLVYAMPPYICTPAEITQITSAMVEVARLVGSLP
Put plainly: Mycobacterium tuberculosis BioA enzyme inhibitor Measured in Biochemical System Using Plate Reader - 2163-02_Inhibitor_Dose_CherryPick_Activity. It counts as functional, Mycobacterium tuberculosis UT205.

Test [6] deals with Peroxisome proliferator-activated receptor gamma/Nuclear receptor coactivator 1 (Homo sapiens, UniProt P37231). Put plainly: TR-FRET dose response biochemical High Throughput Screening assay for agonists of the steroid receptor coactivator 1 (SRC-1) recruitment by the peroxisome proliferator-activated receptor gamma (PPAR gamma): non-selective agonists. [Related pubchem assays (depositor defined):AID1300, AID1808, AID504735, AID631]. The format is protein assay.

Test [7] deals with Peroxisome proliferator-activated receptor gamma/Nuclear receptor coactivator 3 (Homo sapiens, UniProt P37231). The experiment in a line: TR-FRET dose response biochemical High Throughput Screening assay for agonists of the steroid receptor coactivator 3 (SRC-3) recruitment by the peroxisome proliferator-activated receptor gamma (PPAR gamma): non-selective agonists. [Related pubchem assays: 1301 (Confirmation screen.), 1048 (Primary screen.)]. It counts as functional. A general note: In TR-FRET formats the signal depends on donor and acceptor labels being close together.

Test [8] deals with Peroxisome proliferator-activated receptor gamma/Nuclear receptor coactivator 2 (Homo sapiens, UniProt P37231). The experiment in a line: TR-FRET dose response biochemical High Throughput Screening assay for agonists of the steroid receptor coactivator 2 (SRC-2) recruitment by the peroxisome proliferator-activated receptor gamma (PPAR gamma): non-selective agonists. [Related pubchem assays: 1297, 1032 ]. It counts as functional.

Test [9] addresses 26S proteasome non-ATPase regulatory subunit 14 (Homo sapiens, UniProt O00487). The experiment in a line: inhibition of proteasome subunit RPN11 – biochemical, fluorescence polarization, uHTS hits, confirmation (AID 602368). The format is functional. (Fluorescence polarisation rises when a labelled molecule tumbles more slowly, as on binding a larger partner.)
Test [10] addresses 72 kDa type IV collagenase (Homo sapiens, UniProt P08253). Put plainly: Dose Response validation of uHTS RPN11 inhibitor hits using a MMP-2 Fluorescence assay. The format is functional.
Test [11] concerns the target Prothrombin (Bos taurus, UniProt P00735). Put plainly: thrombin inhibition, dose response, biochemical, fluorescence polarization, uHTS hits (AID 602369). The format is functional.
The target in test [12] is Beta-galactosidase (Escherichia coli, UniProt Q8VNN2). The experiment in a line: PubChem AID 485352. It counts as functional.
Test [13] addresses T2, Type-1 angiotensin II receptor (Homo sapiens, UniProt P30556).
T2 sequence (P30556 whole entry): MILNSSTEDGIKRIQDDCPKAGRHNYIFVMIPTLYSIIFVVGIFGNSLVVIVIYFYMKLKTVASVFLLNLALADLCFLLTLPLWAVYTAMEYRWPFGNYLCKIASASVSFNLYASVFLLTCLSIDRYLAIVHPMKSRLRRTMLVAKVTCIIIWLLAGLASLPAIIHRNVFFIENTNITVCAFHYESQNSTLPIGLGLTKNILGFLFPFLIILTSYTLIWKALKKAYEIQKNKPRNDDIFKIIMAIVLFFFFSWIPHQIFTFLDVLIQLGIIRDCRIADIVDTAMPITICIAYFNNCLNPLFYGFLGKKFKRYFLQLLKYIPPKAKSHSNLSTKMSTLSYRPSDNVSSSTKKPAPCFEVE
The experiment in a line: AT1 receptor antagonists, dose response, selectivity assay for APJ receptor antagonist project, cell-based, uHTS hits (AID 463214).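 Further: antagonist potency against angiotensin II stimulated AT1 response.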 It counts as functional.

Test [14] concerns Vero. The experiment in a line: cells. It counts as functional. The following applies: Chlorocebus sabaeus.
Test [15] concerns SN12K1. Put plainly: cells. The following applies: Homo sapiens. It counts as functional.
Test [16] addresses G-protein coupled receptor 55 (Homo sapiens, UniProt Q9Y2T6). Put plainly: GPR55 agonists via beta-arrestin recruitment, primary screen, imaging, U2OS cells, beta-arrestin-GFP redistribution (AID 1961). It counts as functional. In general terms: Activated receptors often draw arrestin, which recruitment assays turn into a signal.
Test [17] has as its system INS1. Put plainly: beta cell apoptosis inhibitors, cytokine rescue, dose response, luminescence, retest (AID 449756).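 Further: cell death triggered by IL-1 beta plus TNF-alpha plus IFN-gamma mixture; protective hits raise ATP signal compared with cytokine alone wells.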 It counts as functional, cell-based. The following applies: Rattus norvegicus.
For test [18], the system named is BJ. Put plainly: cytotoxicity toward BJ-TERT fibroblasts, dose response, cell-based, RAS-independent, luminescence (AID 1933). It counts as functional. The settings on record: Homo sapiens.
For test [19], the system named is BJ. The experiment in a line: cells. It counts as functional, cell-based. The settings on record: Homo sapiens.
The subject of test [20] is BJ. Put plainly: cytotoxicity toward BJ-TERT-LT-ST fibroblasts, dose response, cell-based, RAS-independent, luminescence (AID 1935).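 Further: BJ fibroblasts immortalized with TERT plus LT and ST oncogenes.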 The format is functional. The settings on record: Homo sapiens.
A short description of test [21]: cytotoxicity toward DRD oncogenic fibroblasts, dose response, cell-based, non-viral oncogenic, luminescence (AID 1934). The format is functional. The following applies: Homo sapiens.
For test [22], the target named is Heat shock protein HSP 90-alpha (Homo sapiens, UniProt P07900). It counts as functional, organism-based.
Test [23] deals with BJ. Put plainly: cytotoxicity toward Ras-transformed BJeLR fibroblasts, dose response, cell-based, alamar blue fluorescence, cherrypicked samples (AID 2631).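 Further: confirmatory dose-response assay in RAS-dependent BJ fibroblasts engineered with TERT, LT and ST, with cytotoxicity read by fluorescence.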 The settings on record: Homo sapiens. It counts as functional.

Molecules are shown by their SMILES. Active and inactive are the calls of the source. Where only a bound is given, the exact number is not on record here.

Peroxisome proliferator-activated receptor gamma/Nuclear receptor coactivator 3, sequence (P37231 whole entry): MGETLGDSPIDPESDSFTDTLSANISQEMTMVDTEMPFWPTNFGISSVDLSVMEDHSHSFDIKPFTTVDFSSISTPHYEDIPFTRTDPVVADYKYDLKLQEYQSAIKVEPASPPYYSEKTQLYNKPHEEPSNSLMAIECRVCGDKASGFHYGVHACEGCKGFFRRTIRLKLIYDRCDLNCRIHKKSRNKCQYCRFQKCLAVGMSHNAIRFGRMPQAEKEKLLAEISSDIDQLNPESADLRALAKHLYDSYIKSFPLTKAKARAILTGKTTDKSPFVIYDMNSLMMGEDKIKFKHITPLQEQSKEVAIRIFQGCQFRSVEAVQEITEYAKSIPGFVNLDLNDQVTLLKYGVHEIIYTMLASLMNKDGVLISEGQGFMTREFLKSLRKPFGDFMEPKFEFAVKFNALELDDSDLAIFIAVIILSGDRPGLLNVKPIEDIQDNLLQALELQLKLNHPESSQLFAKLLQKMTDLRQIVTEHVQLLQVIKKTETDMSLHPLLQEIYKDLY
Peroxisome proliferator-activated receptor gamma/Nuclear receptor coactivator 3, sequence (Q9Y6Q9 whole entry, further chain): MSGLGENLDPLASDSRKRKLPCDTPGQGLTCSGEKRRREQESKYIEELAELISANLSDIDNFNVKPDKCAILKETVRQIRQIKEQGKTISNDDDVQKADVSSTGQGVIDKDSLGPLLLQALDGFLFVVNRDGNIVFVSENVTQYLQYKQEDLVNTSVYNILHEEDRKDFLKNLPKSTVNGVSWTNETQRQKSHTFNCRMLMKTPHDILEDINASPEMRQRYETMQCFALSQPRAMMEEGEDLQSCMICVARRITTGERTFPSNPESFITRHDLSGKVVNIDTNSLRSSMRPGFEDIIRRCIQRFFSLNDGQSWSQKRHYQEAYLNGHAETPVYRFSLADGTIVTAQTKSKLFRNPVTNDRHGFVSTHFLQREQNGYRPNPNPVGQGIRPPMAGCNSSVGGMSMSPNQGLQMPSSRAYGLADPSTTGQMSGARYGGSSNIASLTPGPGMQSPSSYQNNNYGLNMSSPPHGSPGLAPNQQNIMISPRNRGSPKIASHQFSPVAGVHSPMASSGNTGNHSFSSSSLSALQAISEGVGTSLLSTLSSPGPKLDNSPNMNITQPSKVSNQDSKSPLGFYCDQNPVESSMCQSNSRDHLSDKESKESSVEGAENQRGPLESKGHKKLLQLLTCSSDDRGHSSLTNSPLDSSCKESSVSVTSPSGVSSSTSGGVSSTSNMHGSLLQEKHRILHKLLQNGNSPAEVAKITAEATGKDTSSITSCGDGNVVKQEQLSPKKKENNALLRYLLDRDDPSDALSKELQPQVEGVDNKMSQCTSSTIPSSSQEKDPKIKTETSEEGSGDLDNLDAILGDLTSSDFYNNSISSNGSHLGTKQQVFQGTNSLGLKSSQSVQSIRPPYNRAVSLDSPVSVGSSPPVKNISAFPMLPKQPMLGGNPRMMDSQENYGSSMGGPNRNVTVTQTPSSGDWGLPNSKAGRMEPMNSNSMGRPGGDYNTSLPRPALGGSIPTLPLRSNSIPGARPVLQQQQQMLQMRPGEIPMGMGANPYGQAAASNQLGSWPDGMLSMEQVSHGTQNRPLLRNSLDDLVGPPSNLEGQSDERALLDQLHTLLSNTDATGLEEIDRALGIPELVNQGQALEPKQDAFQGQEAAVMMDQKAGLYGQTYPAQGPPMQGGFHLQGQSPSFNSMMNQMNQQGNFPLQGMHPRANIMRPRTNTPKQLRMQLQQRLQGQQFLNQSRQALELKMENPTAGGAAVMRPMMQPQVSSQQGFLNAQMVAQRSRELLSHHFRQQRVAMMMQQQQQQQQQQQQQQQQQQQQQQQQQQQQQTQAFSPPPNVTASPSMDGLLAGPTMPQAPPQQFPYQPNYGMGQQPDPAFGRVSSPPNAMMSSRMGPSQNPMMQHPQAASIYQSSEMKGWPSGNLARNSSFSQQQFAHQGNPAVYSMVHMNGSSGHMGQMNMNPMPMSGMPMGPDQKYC
Peroxisome proliferator-activated receptor gamma/Nuclear receptor coactivator 1, sequence (P37231 whole entry): as the sequence (P37231 whole entry) above
Peroxisome proliferator-activated receptor gamma/Nuclear receptor coactivator 1, sequence (Q15788 whole entry, further chain): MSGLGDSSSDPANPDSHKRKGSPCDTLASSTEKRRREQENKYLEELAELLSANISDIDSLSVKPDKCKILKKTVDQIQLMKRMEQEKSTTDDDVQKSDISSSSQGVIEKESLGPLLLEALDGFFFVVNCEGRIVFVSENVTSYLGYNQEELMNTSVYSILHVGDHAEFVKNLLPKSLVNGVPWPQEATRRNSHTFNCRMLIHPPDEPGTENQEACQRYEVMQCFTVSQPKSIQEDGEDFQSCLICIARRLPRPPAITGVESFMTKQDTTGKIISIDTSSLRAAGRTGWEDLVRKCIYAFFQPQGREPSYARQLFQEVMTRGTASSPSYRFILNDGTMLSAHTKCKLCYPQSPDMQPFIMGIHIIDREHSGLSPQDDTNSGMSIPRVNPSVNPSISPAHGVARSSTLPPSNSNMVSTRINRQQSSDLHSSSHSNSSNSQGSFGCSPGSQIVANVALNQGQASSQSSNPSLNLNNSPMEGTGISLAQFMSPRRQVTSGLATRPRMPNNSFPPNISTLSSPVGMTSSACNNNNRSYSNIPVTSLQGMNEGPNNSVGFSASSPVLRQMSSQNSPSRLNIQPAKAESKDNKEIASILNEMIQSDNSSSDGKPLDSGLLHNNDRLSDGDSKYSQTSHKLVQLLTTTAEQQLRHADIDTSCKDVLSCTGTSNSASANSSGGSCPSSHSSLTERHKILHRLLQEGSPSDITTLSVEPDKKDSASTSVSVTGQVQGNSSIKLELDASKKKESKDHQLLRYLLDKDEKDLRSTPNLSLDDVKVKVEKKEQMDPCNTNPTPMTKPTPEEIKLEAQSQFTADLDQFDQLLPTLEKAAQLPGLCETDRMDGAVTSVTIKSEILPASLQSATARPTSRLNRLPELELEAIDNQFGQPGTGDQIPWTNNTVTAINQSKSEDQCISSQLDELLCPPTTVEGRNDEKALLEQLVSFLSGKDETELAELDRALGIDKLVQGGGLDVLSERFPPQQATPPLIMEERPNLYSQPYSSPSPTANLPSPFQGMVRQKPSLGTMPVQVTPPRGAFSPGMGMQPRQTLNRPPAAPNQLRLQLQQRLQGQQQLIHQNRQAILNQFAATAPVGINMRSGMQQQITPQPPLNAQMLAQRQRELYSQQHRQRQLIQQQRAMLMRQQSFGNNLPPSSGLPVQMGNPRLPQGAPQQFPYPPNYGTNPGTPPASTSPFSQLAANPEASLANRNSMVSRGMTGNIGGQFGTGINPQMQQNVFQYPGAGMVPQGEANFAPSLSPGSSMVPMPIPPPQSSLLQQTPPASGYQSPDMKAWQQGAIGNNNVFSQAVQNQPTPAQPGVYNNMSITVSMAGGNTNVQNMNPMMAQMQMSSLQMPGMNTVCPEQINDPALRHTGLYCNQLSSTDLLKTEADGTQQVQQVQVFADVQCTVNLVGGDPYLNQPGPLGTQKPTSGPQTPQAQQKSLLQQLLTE
Beta-galactosidase, sequence (Q8VNN2 whole entry): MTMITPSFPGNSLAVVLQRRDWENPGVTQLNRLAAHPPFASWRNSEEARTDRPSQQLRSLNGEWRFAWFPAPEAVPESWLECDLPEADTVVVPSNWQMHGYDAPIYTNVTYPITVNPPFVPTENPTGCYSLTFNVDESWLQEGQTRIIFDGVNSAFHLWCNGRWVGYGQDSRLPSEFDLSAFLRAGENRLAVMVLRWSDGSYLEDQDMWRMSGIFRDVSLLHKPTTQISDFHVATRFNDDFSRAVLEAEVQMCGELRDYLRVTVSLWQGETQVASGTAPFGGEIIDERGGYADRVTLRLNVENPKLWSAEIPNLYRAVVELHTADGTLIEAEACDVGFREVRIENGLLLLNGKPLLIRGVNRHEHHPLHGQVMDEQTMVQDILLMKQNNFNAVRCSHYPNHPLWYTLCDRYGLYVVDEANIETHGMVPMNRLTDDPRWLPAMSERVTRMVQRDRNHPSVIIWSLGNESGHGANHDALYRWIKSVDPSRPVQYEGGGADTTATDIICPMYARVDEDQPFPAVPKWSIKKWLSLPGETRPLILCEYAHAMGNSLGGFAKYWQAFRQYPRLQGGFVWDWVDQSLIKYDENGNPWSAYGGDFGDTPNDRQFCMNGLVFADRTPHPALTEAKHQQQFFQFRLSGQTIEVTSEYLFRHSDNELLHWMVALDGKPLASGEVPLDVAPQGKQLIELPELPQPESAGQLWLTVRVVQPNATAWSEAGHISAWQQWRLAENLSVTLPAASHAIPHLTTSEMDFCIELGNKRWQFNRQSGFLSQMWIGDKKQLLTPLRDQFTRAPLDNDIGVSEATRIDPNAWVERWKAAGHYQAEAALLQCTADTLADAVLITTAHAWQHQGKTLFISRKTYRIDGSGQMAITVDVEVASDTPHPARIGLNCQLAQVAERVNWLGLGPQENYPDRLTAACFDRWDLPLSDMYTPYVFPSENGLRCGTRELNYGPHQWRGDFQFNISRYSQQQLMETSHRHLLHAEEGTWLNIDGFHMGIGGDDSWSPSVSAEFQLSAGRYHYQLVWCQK

With `CN(C)S(=O)(=O)c1ccc(C(=O)Nc2nc(-c3cc4ccccc4o3)cs2)cc1`, the EC50 (in general, the concentration needed to bring the measured effect to its halfway point) in test [1] was > 20 µM (inactive). Moreover, the values for the IC50 in [2], in [3] and in test [4] were 3.09 µM (active), > 20 µM (inactive) and 2.85 µM (active), respectively.

Turning to `O=C(CSc1nc2ccccc2c(=O)n1-c1ccccc1)N1CCN(CCO)CC1`, in [5], the AC50 (in general, the concentration at which the activity in the assay is half-maximal) was 12.3 µM (active).

For `CCOc1ccc(CCNC(=O)CSc2cc(=O)n(C)c3ccccc23)cc1OCC`, the EC50 in [6] is > 79.4 µM (inactive); in test [7] it was > 79.4 µM (not active); in [8], > 79.4 µM (not active).

With `CC(NC(=O)C1CCN(C(=O)c2cccs2)CC1)c1ccc(S(N)(=O)=O)cc1` (stereo unspecified), the IC50 (in general, the midpoint of a concentration-inhibition curve) in test [9] was 9.98 µM (active); in test [10] it was > 100 µM (inactive); in test [11] it was > 100 µM (inactive).

In the case of `COc1ccc(NP(=O)(Oc2ccccc2OC)Oc2ccccc2OC)cc1`, the EC50 in test [6] is > 79.4 µM (inactive); in test [7], > 79.4 µM (not active); in [8], > 79.4 µM (not active).

As for `O=C(OCC(=O)c1ccc(Cl)cc1Cl)c1ccccn1`, the EC50 in [12] is > 40 µM (inactive). In addition, in test [13], the IC50 was 35.9 µM (not active).

Take `COc1cccc(N2[C@@H](CC(C)=O)c3ccc(/C=C/C(C)=O)cc3S2(=O)=O)c1`: the CC50 (commonly the concentration at which the toxic effect on the cells reaches its halfway point) in [14] was 17.9 µM (active).

As for `c1ccc(CN2CCc3[nH]c4ccccc4c3C2)cc1`, in [15], the GI50 (usually the concentration that inhibits growth by half) was 15.2 µM (inactive).

Consider `Cc1ccc(NS(=O)(=O)c2cc([N+](=O)[O-])ccc2N/N=C/c2sc(N3CCOCC3)nc2-c2ccccc2)c(C)c1`, for which the EC50 was > 40 µM (inactive) in test [12] and < 0.5 µM (active) in [16]. In addition, the IC50 in test [13] is reported as > 40 µM (not active). Also, the AC50 in test [17] is 4.62 µM (active).

In the case of `CO[C@H]1CN(C)C(=O)c2ccc(NC(C)=O)cc2OC[C@@H](C)N(C(=O)c2ccc(F)cc2)C[C@H]1C`, in test [5], the AC50 was 11.5 µM (active).

For `COCCNC(=O)C[C@@H]1CC[C@@H]2[C@H](COc3ccc(NC(=O)Nc4cccc(F)c4)cc3C(=O)N2C)O1`, in test [5], the AC50 is 4.17 µM (active).

On to `Cc1ccc(/N=C/c2c(C)[nH]n(-c3nc4ccccc4[nH]3)c2=O)cc1`, for which the EC50 in test [18] was 2.84 µM (inconclusive); in test [19], 3.03 µM (active); in [20], 3.62 µM (inconclusive); in test [21], 2.83 µM (active); in test [23], > 133 µM (inactive). For the same molecule, the AC50 in test [22] is 5.84 µM (active); in [17], 1.42 µM (active).
